Reference: PMC7673538 (PLoS Biology, 2020)
Several values for one entry are separate records, joined by “and”; a condition that tells them apart may be missing. Equal entries are not always repeated. Where two headings read alike, the source gives them in different places.

Experiments:
[1] = tested on: CV-A24 (strain Joseph); assay type: cell-based, coxsackievirus A24
[2] = tested on: Rluc-CV-B3; assay type: cell-based; details: Fig 3B
[3] = tested on: HeLa R19 cells
[4] = tested on: representative EVs and RVs; assay type: cell-based
[5] = tested on: CV-B3; assay: microbe, parasite or virus in culture; assay type: cell-based, coxsackievirus B3
[6] = tested on: PV-1; assay: microbe, parasite or virus in culture; assay type: cell-based, poliovirus 1; details: for EC50: Enterovirus C
[7] = tested on: CV-B3; assay: microbe, parasite or virus in culture; assay type: cell-based, coxsackievirus B3; details: Enterovirus B, CVB3, BGM
[8] = tested on: all representative viruses; assay type: cell-based
[9] = in vitro; details: human

COc1ccc(N(Cc2ccc(F)cc2)C(=O)c2cc[nH]c2)cc1 [Compound 12a, N-(4-Fluorobenzyl)-N-(4-methoxyphenyl)-1H-pyrrole-3-carboxamide]
virus titer, TCID50/ml (Figure 2A) ([1]; compound concentration 0.1 µM): 469824 TCID50/ml and 562341 TCID50/ml and 300000 TCID50/ml | virus titer, TCID50/ml (Figure 2A) ([1]; compound concentration 1 µM): 169824 TCID50/ml and 316228 TCID50/ml | virus titer, TCID50/ml (Figure 2A) ([1]; compound concentration 100 µM): 316.228 TCID50/ml | resistance profile against Rluc-CV-B3 2C mutants (in words) [2]: resembled that of the parental compound 1 and (S)-fluoxetine | cytotoxic effect in parallel to single-cycle assay (in words) [3]: none of them showed any cytotoxic effect | inhibition of contemporary/clinical isolates of EV-A71, CV-A24v and EV-D68 (in words) [4]: inhibited all clinical isolates of EV-A71, CV-A24v, and EV-D68 tested | spectrum of antiviral activity (in words) [4]: inhibited all representative EVs and RVs | cross-resistance of 19d-resistant CV-B3 virus pools (in words) [5]: cross-resistant | increase of antiviral activity against CV-B3 [5]: ~25 fold | Figure 7 dose-response raw data, CV-B3 (triplicate values) ([5]; Concentration 0.001 µM): 10.6023 and 13.4886 and 15.1049 | Figure 7 dose-response raw data, CV-B3 (triplicate values) ([5]; Concentration 0.0137 µM): 31.7298 and 16.0285 and 26.5345 | Figure 7 dose-response raw data, CV-B3 (triplicate values) ([5]; Concentration 0.3704 µM): 108.081 and 95.0938 and 115.255 | Figure 7 dose-response raw data, CV-B3 (triplicate values) ([5]; Concentration 1.1111 µM): 110.307 and 87.92 and 98.0623 | Figure 7 dose-response raw data, CV-B3 (triplicate values) ([5]; Concentration 3.3333 µM): 103.381 and 89.7753 and 100.165 | Figure 7 dose-response raw data, CV-B3 (triplicate values) ([5]; Concentration 10 µM): 102.144 and 95.7122 and 98.0623 | EC50 ([5]; Enterovirus B, CVB3, HeLa): 10 ± 10 nM | EC50 ([5]; Enterovirus B, CVB3, HeLa R19, […], read-out: EC50 Exp1): 180 nM | EC50 ([5]; Enterovirus B, CVB3, HeLa R19, read-out: 50% effective concentration [EC50]): 80 ± 80 nM | EC50 ([5]; Enterovirus B, CVB3, HeLa R19, read-out: CV-B3 Exp 1 EC50): 59 nM | EC50 ([5]; Enterovirus B, CVB3, HeLa R19, read-out: CV-B3 Exp2 EC50): 95 nM | EC50 ([5]; Enterovirus B, CVB3, HeLa R19, read-out: EC50 Average): 18.7 nM | EC50 ([5]; Enterovirus B, CVB3, HeLa R19, read-out: EC50 Exp1): 17 nM | EC50 ([5]; Enterovirus B, CVB3, HeLa R19, read-out: EC50 Exp2): 370 nM | EC50 ([5]; Enterovirus B, CVB3, HeLa R19, read-out: EC50 HelaR19 Average): 11.2 nM | EC50 ([5]; Enterovirus B, CVB3, HeLa R19, read-out: Exp 1 EC50 HelaR19): 4 nM | EC50 ([5]; Enterovirus B, CVB3, HeLa R19, read-out: Exp 2 EC50 HelaR19): 18.3 nM | EC50 ([5]; Enterovirus B, CVB3 / genotype 2c, HeLa R19, read-out: EC50 CV-B3 WT): 20 ± 10 nM | EC50 ([5]; read-out: EC50 Exp2): 210 nM | Figure 7 dose-response raw data, PV-1 (triplicate values) ([6]; Concentration 0.0046 µM): 10.497 and 11.7005 and 9.1598 | Figure 7 dose-response raw data, PV-1 (triplicate values) ([6]; Concentration 0.0137 µM): 10.497 and 11.7005 and 9.1598 | Figure 7 dose-response raw data, PV-1 (triplicate values) ([6]; Concentration 0.0412 µM): 10.7644 and 8.357 and 9.1598 | Figure 7 dose-response raw data, PV-1 (triplicate values) ([6]; Concentration 0.1235 µM): 13.4388 and 8.357 and 9.294 | Figure 7 dose-response raw data, PV-1 (triplicate values) ([6]; Concentration 0.3704 µM): 10.497 and 11.7005 and 9.1598 | Figure 7 dose-response raw data, PV-1 (triplicate values) ([6]; Concentration 1.1111 µM): 10.7644 and 8.357 and 9.1598 | Figure 7 dose-response raw data, PV-1 (triplicate values) ([6]; Concentration 3.3333 µM): 13.4388 and 8.357 and 9.294 | Figure 7 dose-response raw data, PV-1 (triplicate values) ([6]; Concentration 100 µM): 99.781 and 98.9928 and 101.358 | EC50 ([6]; HeLa R19, read-out: EC50 Exp1): 3890 nM | EC50 ([6]; HeLa R19, read-out: EC50 Exp2): 3530 nM | EC50 ([6]; HeLa R19, read-out: EC50 PV-1): 3710 ± 180 nM | EC50 [7]: 40 ± 20 nM | EC50 ([7]; read-out: EC50 BGM Average): 35 nM | EC50 ([7]; read-out: Exp 1 EC50 BGM): 20 nM | EC50 ([7]; read-out: Exp 2 EC50 BGM): 50 nM | inhibition in single-cycle viral replication assay (in words) [8]: inhibited all representative viruses | CC50 ([9]; CC50): > 100000 nM | CC50 ([9]; CC50 Hap1 Average): > 100000 nM | CC50 ([9]; Exp 1 CC50 Hap1): > 100000 nM | CC50 ([9]; Exp 2 CC50 Hap1): > 100000 nM
